Measurements from patent US20230019491A1, “PYRIMIDINE TBK/IKKe INHIBITOR COMPOUNDS AND USES THEREOF” (Merck Patent GmbH, priority 2017, published 2023).

Legend:
[1] = target: T1, IKKε (Homo sapiens, UniProt Q14164); assay: IKKε biochemical assay; conditions: 10 point 1:4 dose response, 30 uM top concentration, 90 min at 25° C., LabChip EZ Reader II; read-out: IKKε_IC50
T1 sequence (Q14164 1-716): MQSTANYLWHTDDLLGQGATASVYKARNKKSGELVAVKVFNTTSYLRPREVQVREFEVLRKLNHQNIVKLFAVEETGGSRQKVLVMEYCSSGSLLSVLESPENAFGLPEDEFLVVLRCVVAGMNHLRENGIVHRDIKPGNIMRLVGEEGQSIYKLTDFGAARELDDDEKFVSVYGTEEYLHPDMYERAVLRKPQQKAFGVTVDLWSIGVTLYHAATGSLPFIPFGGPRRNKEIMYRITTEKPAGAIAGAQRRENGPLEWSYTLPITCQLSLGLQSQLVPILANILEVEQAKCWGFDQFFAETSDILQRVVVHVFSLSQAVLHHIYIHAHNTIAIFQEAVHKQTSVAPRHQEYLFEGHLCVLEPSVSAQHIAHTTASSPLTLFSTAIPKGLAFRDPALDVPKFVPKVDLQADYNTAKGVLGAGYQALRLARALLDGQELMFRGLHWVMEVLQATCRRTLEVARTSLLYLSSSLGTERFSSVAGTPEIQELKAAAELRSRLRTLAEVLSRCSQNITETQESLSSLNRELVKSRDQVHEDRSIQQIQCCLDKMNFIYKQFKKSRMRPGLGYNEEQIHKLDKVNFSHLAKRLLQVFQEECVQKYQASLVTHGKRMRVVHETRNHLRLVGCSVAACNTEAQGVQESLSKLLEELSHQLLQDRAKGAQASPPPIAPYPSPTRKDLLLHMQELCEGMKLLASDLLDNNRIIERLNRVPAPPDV
How it was run: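 Mobility-shift LabChip read-out followed a 90 min, 25° C. reaction of IKKε with substrate and test compound, with DMSO held at 1% final. Reactions were ended with stop buffer. Wells with 10 uM final staurosporine defined complete inhibition, and DMSO-only wells the uninhibited level.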

[2] = target: T2, TBK1 (Homo sapiens, UniProt Q9UHD2); assay: TBK biochemical assay; conditions: 10 point 1:4 dose response, 30 uM top concentration, 90 min at 25° C., LabChip EZ Reader II; read-out: TBK1_IC50
T2 sequence (Q9UHD2 1-729): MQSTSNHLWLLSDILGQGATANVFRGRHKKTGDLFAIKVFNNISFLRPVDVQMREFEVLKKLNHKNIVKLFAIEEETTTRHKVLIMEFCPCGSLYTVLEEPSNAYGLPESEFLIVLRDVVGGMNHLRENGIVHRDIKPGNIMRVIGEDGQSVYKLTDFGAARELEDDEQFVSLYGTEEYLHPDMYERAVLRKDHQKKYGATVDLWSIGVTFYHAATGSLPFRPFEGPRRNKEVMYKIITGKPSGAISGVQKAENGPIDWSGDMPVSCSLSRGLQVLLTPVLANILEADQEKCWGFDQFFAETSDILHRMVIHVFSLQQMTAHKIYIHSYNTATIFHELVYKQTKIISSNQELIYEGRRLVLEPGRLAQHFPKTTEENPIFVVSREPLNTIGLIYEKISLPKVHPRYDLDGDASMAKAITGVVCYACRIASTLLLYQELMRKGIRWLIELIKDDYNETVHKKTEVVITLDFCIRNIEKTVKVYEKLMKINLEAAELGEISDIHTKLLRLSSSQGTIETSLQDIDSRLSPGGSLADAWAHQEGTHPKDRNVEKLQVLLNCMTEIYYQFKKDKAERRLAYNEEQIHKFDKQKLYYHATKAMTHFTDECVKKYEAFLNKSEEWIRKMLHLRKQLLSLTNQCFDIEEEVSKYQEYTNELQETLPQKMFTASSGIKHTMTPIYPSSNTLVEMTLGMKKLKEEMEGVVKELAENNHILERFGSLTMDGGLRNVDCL
How it was run: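 Read-out was a Caliper LabChip mobility-shift assay, run after a 90-min, 25 °C reaction of TBK1 with substrate and compounds, quenched with stop buffer. Control wells received staurosporine at 10 uM final.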

Compound	IC50 [1] [nM]	IC50 [2] [nM]
COc1nc(Nc2ncc(F)c(-c3ccc(OC4CCN(C(=O)C(C)O)CC4(F)F)c(C#N)c3)n2)ccc1C1CCN(C2COC2)CC1 (stereo not shown) [Example 294, 2-{[33-difluoro-1-(2-hydroxypropanoyl)piperidin-4-yl]oxy}-5-[5-fluoro-2-({6-methoxy-5-[1-(oxetan-3-yl)piperidin-4-yl]pyridin-2-yl}amino)pyrimidin-4-yl]benzonitrile]	< 100	< 100
CC(O)C(=O)N1CC[C@H](Oc2ccc(-c3nc(Nc4ccc(N5CCN(C6COC6)CC5)cc4)ncc3F)cc2C#N)[C@H](F)C1 (stereo partly drawn) [Example 295, 2-{[(3R,4S)-3-fluoro-1-(2-hydroxypropanoyl)piperidin-4-yl]oxy}-5-[5-fluoro-2-({4-[4-(oxetan-3-yl)piperazin-1-yl]phenyl}amino)pyrimidin-4-yl]benzonitrile]	< 100	< 100
COc1nc(Nc2ncc(F)c(-c3ccc(O[C@H]4CCN(C(=O)[C@H](C)O)C[C@H]4F)c(C#N)c3)n2)ccc1N1CCN(C2COC2)CC1 [Example 298, 2-({3-fluoro-1-[(2S)-2-hydroxypropanoyl]piperidin-4-yl}oxy)-5-[5-fluoro-2-({6-methoxy-5-[4-(oxetan-3-yl)piperazin-1-yl]pyridin-2-yl}amino)pyrimidin-4-yl]benzonitrile]	< 100	< 100
CC(O)C(=O)N1CCC(Oc2ccc(-c3nc(Nc4ccc(N5CCN(C6COC6)CC5)cc4)ncc3F)cc2C#N)C(F)(F)C1 (stereo not shown) [Example 299, 2-{[3,3-difluoro-1-(2-hydroxypropanoyl)piperidin-4-yl]oxy}-5-[5-fluoro-2-({4-[4-(oxetan-3-yl)piperazin-1-yl]phenyl}amino)pyrimidin-4-yl]benzonitrile]	< 100	< 100
C[C@H](O)C(=O)N1CCC(Oc2ccc(-c3nc(Nc4ccc(C5CCN(C6COC6)CC5)cc4)ncc3F)cc2C#N)C(F)(F)C1 (stereo partly drawn) [Example 301, 2-({3,3-difluoro-1-[(2S)-2-hydroxypropanoyl]piperidin-4-yl}oxy)-5-[5-fluoro-2-({4-[1-(oxetan-3-yl)piperidin-4-yl]phenyl}amino)pyrimidin-4-yl]benzonitrile]	< 100	< 100
COc1nc(Nc2nccc(-c3ccc(OC4CCN(C(=O)[C@H](C)O)CC4(F)F)c(C#N)n3)n2)ccc1N1CCN(C2COC2)CC1 (stereo partly drawn) [Example 304, 3-([3,3-difluoro-1-[(2S)-2-hydroxypropanoyl]piperidin-4-yl]oxy)-6-[2-([6-methoxy-5-[4-(oxetan-3-yl)piperazin-1-yl]pyridin-2-yl]amino)pyrimidin-4-yl]pyridine-2-carbonitrile]	< 100	< 100
COc1nc(Nc2nccc(-c3cnc(OC4CCN(C(=O)[C@H](C)O)CC4(F)F)c(C#N)c3)n2)ccc1N1CCN(C2COC2)CC1 (stereo partly drawn) [Example 305, 2-([3,3-difluoro-1-[(2S)-2-hydroxypropanoyl]piperidin-4-yl]oxy)-5-[2-([6-methoxy-5-[4-(oxetan-3-yl)piperazin-1-yl]pyridin-2-yl]amino)pyrimidin-4-yl]pyridine-3-carbonitrile]	< 100	< 100
C[C@H](O)C(=O)N1CCC(Oc2ccc(-c3ccnc(Nc4ccc(N5CCN(C6COC6)CC5)cc4)n3)nc2C#N)C(F)(F)C1 (stereo partly drawn) [Example 306, 3-([33-difluoro-1-[(2S)-2-hydroxypropanoyl]piperidin-4-yl]oxy)-6-[2-([4-[4-(oxetan-3-yl)piperazin-1-yl]phenyl]amino)pyrimidin-4-yl]pyridine-2-carbonitrile]	< 100	< 100
COc1nc(Nc2nccc(-c3cc(C#N)c(OC4CCN(C(=O)[C@H](C)O)CC4(F)F)cc3C)n2)ccc1N1CCN(C2COC2)CC1 (stereo partly drawn) [Example 307, 2-([3,3-difluoro-1-[(2S)-2-hydroxypropanoyl]piperidin-4-yl]oxy)-5-[2-([6-methoxy-5-[4-(oxetan-3-yl)piperazin-1-yl]pyridin-2-yl]amino)pyrimidin-4-yl]-4-methylbenzonitrile]	< 100	< 100
COc1cc(N2CCN(C3COC3)CC2)cnc1Nc1nccc(-c2ccc(OC3CCN(C(=O)[C@H](C)O)CC3(F)F)c(C#N)c2)n1 (stereo partly drawn) [Example 309, 2-([3,3-difluoro-1-[(2S)-2-hydroxypropanoyl]piperidin-4-yl]oxy)-5-[2-([3-methoxy-5-[4-(oxetan-3-yl)piperazin-1-yl]pyridin-2-yl]amino)pyrimidin-4-yl]benzonitrile]	100 to 1000	100 to 1000

Second part, the compound after the results:

IC50 [1] [nM]	IC50 [2] [nM]	Compound
< 100	< 100	C[C@H](O)C(=O)N1CC[C@H](Oc2ccc(-c3nc(Nc4ccc(N5CCN(C6COC6)CC5)cc4)ncc3F)cc2C#N)[C@H](F)C1 [Example 296, 2-({3-fluoro-1-[(2S)-2-hydroxypropanoyl]piperidin-4-yl}oxy)-5-[5-fluoro-2-({4-[4-(oxetan-3-yl)piperazin-1-yl]phenyl}amino)pyrimidin-4-yl]benzonitrile]
< 100	< 100	C[C@H](O)C(=O)N1CCC(Oc2ccc(-c3nc(Nc4ccc(N5CCN(C6COC6)CC5)cc4)ncc3F)cc2C#N)C(F)(F)C1 (stereo partly drawn) [Example 300, 2-({3,3-difluoro-1-[(2S)-2-hydroxypropanoyl]piperidin-4-yl}oxy)-5-[5-fluoro-2-({4-[4-(oxetan-3-yl)piperazin-1-yl]phenyl}amino)pyrimidin-4-yl]benzonitrile]
1000 to 5000	100 to 1000	COc1nc(Nc2nccc(-c3cc(C#N)c(OC4CCN(C(=O)[C@H](C)O)CC4(F)F)cn3)n2)ccc1N1CCN(C2COC2)CC1 (stereo partly drawn) [Example 303, 5-([33-difluoro-1-[(2S)-2-hydroxypropanoyl]piperidin-4-yl]oxy)-2-[2-([6-methoxy-5-[4-(oxetan-3-yl)piperazin-1-yl]pyridin-2-yl]amino)pyrimidin-4-yl]pyridine-4-carbonitrile]
< 100	< 100	Cc1cc(N2CCN(C3COC3)CC2)ccc1Nc1nccc(-c2ccc(OC3CCN(C(=O)[C@H](C)O)CC3(F)F)c(C#N)c2)n1 (stereo partly drawn) [Example 310, 2-([3,3-difluoro-1-[(2S)-2-hydroxypropanoyl]piperidin-4-yl]oxy)-5-[2-([2-methyl-4-[4-(oxetan-3-yl)piperazin-1-yl]phenyl]amino)pyrimidin-4-yl]benzonitrile]
< 100	< 100	COc1cc(Nc2nccc(-c3ccc(OC4CCN(C(=O)[C@H](C)O)CC4(F)F)c(C#N)c3)n2)ccc1C1CCN(C2COC2)CC1 (stereo partly drawn) [Example 311, 2-([3,3-difluoro-1-[(2S)-2-hydroxypropanoyl]piperidin-4-yl]oxy)-5-[2-([3-methoxy-4-[1-(oxetan-3-yl)piperidin-4-yl]phenyl]amino)pyrimidin-4-yl]benzonitrile]
100 to 1000	100 to 1000	COc1nc(Nc2nccc(-c3ccc(N4CC5(CCNCC5)C4)c(C#N)c3)n2)ccc1N1CCN(C2COC2)CC1 [Example 312, 2-(2,7-Diaza-spiro[3.5]non-2-yl)-5-{2-[6-methoxy-5-(4-oxetan-3-yl-piperazin-1-yl)-pyridin-2-ylamino]-pyrimidin-4-yl}-benzonitrile]
100 to 1000	< 100	COc1nc(Nc2nccc(-c3ccc(N4CCC5(CC4)CNC5)c(C#N)c3)n2)ccc1N1CCN(C2COC2)CC1 [Example 313, 2-(2,7-Diaza-spiro[3.5]non-7-yl)-5-{2-[6-methoxy-5-(4-oxetan-3-yl-piperazin-1-yl)-pyridin-2-ylamino]-pyrimidin-4-yl}-benzonitrile]
